Assays:
[1] = system: NCI-H460; assay: Anti-cancer screen (MTT), NCI-H460; type: cell-based; details: Homo sapiens, NCI-H460; 48 hours, MTT
Experimental: (§1) Experimental drugs are screened for anti-cancer activity in three cell lines for their GI50, TGI and LC50 values (using five concentrations for each compound). The cell lines are maintained in DMEM containing 10% fetal bovine serum. 96 well microtiter plates are inoculated with cells in 100 μL for 24 h at 37° C., 5% CO2, 95% air and 100% relative humidity. 5000 HCT116 cells/well, 5000 NCIH460 cells/well, 10000 U251 cells/well and 5000 MDAMB231 cells/well are plated. A separate plate with these cell lines is also inoculated to determine cell viability before the addition of the compounds (T0).
Following 24 hours incubation, experimental drugs are added to the 96 well plates. […] Compounds are dissolved in dimethylsulfoxide (DMSO) to make 20 mM stock solutions on the day of drug addition and frozen at −20° C. […] Standard drugs whose anti-cancer activity has been well documented and which are regularly used are doxorubicin and SAHA.
(§2) Cells are incubated with compounds for 48 hours followed by the addition of 10 μL 3-(4,5-Dimethyl-2-thiazolyl)-2,5-diphenyl-2H-tetrazolium (MTT) solution per well and a subsequent incubation at 37° C., 5% CO2, 95% air and 100% relative humidity, protected from light. After 4 hours, well contents are aspirated carefully followed by addition of 150 μL DMSO per well. Plates are agitated to ensure solution of the formazan crystals in dimethylsulphoxide and absorbance read at 570 nm.
(§3) Percent growth is calculated for each compound's concentration relative to the control and zero measurement wells (To; viability right before compound addition). If a test well's O.D. value is greater than the To measurement for that cell line % Growth=(test−zero)/(control−zero)×100
(§4) If a test well's O.D. value is lower than the T0 measurement for that cell line, […]

[2] = system: U251; assay: Anti-cancer screen (MTT), U251; type: cell-based; details: Homo sapiens, U-251, 48 hours
Experimental: as §1
(§5) Following 24 hours incubation, experimental drugs are added to the 96 well plates. Each plate contains one of the above cell lines and the following in triplicate: five different concentrations (0.01, 0.1, 1, 10 and 100 μM) of four different compounds, appropriate dilutions of a cytotoxic standard and control (untreated) wells. Compounds are dissolved in dimethylsulfoxide (DMSO) to make 20 mM stock solutions on the day of drug addition and frozen at −20° C. Serial dilutions of these 20 mM stock solutions are made in complete growth medium such that 100 μL of these drug solutions in medium, of final concentrations equaling 0.01, 0.1, 1, 10 and 100 μM can be added to the cells in triplicate. Standard drugs whose anti-cancer activity has been well documented and which are regularly used are doxorubicin and SAHA.
as §2, §3, §4

[3] = system: HCT116; assay: Anti-cancer screen (MTT), HCT116; type: cell-based; details: Homo sapiens, HCT-116, 48 hours
Experimental: as §1, §5, §2, §3, §4

[4] = system: TNF-α; assay: In vitro measurement of TNF-α in human PBMC; type: cell-based; details: LPS
Experimental: In Vitro Measurement of Tumor Necrosis Factor Alpha (TNF-α)
This assay determines the effect of test compounds on the production of TNF-α in human Peripheral Blood Mononuclear Cells (PBMC). Compounds were tested for their ability to inhibit the activity of TNF-α in human PBMC. PBMC were isolated from blood (from healthy volunteers) using BD Vacutainer CPT™ (Cell preparation tube, BD Bio Science) and suspended in RPMI medium (Physiol. Res. 52; 593-598, 2003). The test compounds were pre-incubated with PBMC (0.5 million/incubation well) for 15 minutes at 37° C. and then stimulated with Lipopolysaccharide (Escherichia coli: B4; 1 μg/ml) for 18 hours at 37° C. in 5% CO2. The levels of TNF-α in the cell culture medium were estimated using enzyme linked Immunosorbent assay performed in a 96 well format as per the procedure of the manufacturer (R&D Systems, Inc. 614 McKinley Place Nebr., Minneapolis, Minn. 55413, USA).

[5] = system: IL-1β; assay: In vitro measurement of IL-1β in human PBMC; type: cell-based; details: LPS
Experimental: (§6) In vitro Measurement of Interleukin-6 (IL-6) & Interleukin-1β (IL1β)
(§7) This assay determines the effect of test compounds on the production of IL-6 and IL1β in human PBMC (Physiol. Res. 52: 593-598, 2003). Compounds were tested for their ability to inhibit the activity of IL-6 and IL1β in human PBMC. PBMC were isolated from blood using BD Vacutainer CPT™ Cell preparation tube (BD Bio Science) and suspended in RPMI medium. The test compounds were preincubated with PBMC (0.5 million/incubation well) for 15 minutes at 37° C. and then stimulated with Lipopolysaccharide (Escherichia coli: B4; 1 μg/ml) for 18 hours at 37° C. in 5% CO2. The levels of IL-6 and IL1β in cell culture medium were estimated using enzyme linked Immunosorbent assay performed in a 96 well format as per the procedure of the manufacturer (R&D Systems, Inc. 614 McKinley Place Nebr., Minneapolis, Minn. 55413, USA).

[6] = system: IL-6; assay: In vitro measurement of IL-6 in human PBMC; type: cell-based; details: LPS; for inhibition at 10 µM: Conc. 10 μM
Experimental: as §6, §7

SMILES	GI50 [1]	GI50 [2]	GI50 [3]	further results
CSc1nc(-c2ccncc2)nc(NCCO)c1C(=O)Nc1ccc(Br)cc1 [Example 46, N-(4-Bromophenyl)-4-[(2-hydroxyethyl)amino]-6-(methylthio)-2-pyridin-4-ylpyrimidine-5-carboxamide]	200 nM	200 nM		
CSc1ccc(-c2nc(O)c(C(=O)Nc3ccc(C)c(C)c3)c(SC)n2)cc1 [Example 2, 4-Hydroxy-N-(3,4-dimethylphenyl)-6-(methylthio)-2-[4-(methylthio)phenyl]pyrimidine-5-carboxamide]				melting point: 303 to 305 °C
CCc1ccc(NC(=O)c2c(NC)nc(-c3ccncc3)nc2SC)cc1 [Example 21, N-(4-Ethylphenyl)-4-(methylamino)-6-(methylthio)-2-pyridin-4-ylpyrimidine-5-carboxamide]	400 nM		9500 nM	
CNc1nc(-c2ccncc2)nc(SC)c1C(=O)Nc1ccc(C(C)C)cc1 [Example 34, N-(4-Isoproylphenyl)-4-(methylamino)-6-(methylthio)-2-pyridin-4-ylpyrimidine-5-carboxamide]	900 nM		9000 nM	
CNc1nc(-c2cccnc2)nc(SC)c1C(=O)Nc1ccc(OC)cc1.O=P(O)(O)O [Example 59, N-(4-Methoxyphenyl)-4-(methylamino)-6-(methylthio)-2-pyridin-3-ylpyrimidine-5-carboxamide orthophosphoric acid salt]				melting point: 222 to 225 °C
CCc1ccc(NC(=O)c2c(NC)nc(-c3ccc(S(N)(=O)=O)cc3)nc2SC)cc1 [Example 17, 2-[4-(Aminosulfonyl)phenyl]-N-(4-ethylphenyl)-4-(methylamino)-6-(methylthio)pyrimidine-5-carboxamide]				inhibition at 0.1 µM [4]: 30.1%
CSc1nc(-c2ccncc2)nc(NCCO)c1C(=O)Nc1ccc(Cl)cc1 [Example 47, N-(4-Chlorophenyl)-4-[(2-hydroxyethyl)amino]-6-(methylthio)-2-pyridin-4-ylpyrimidine-5-carboxamide]	100 nM	300 nM		
CSc1ccc(-c2nc(O)c(C(=O)Nc3ccc(C)cc3)c(SC)n2)cc1 [Example 1, 4-Hydroxy-N-(4-methylphenyl)-6-(methylthio)-2-[4-(methylthio)phenyl]pyrimidine-5-carboxamide]				melting point: 302 to 305 °C
CNc1nc(-c2ccc(N(C)C)cc2)nc(SC)c1C(=O)Nc1ccc(OC)cc1 [Example 57, 2-[4-(Dimethylamino)phenyl]-4-(methylamino)-N-(4-methoxyphenyl)-6-(methylthio)pyrimidine-5-carboxamide]	7000 nM	4000 nM		
CCc1ccc(NC(=O)c2c(NC)nc(-c3ccc(S(N)(=O)=O)cc3)nc2NC)cc1 [Example 16, 2-[4-(Aminosulfonyl)phenyl]-4,6-bis(methylamino)-N-(4-ethylphenyl)pyrimidine-5-carboxamide]				inhibition at 10 µM ([4]; at 10 μM): 53.1%
CNc1nc(-c2ccncc2)nc(SC)c1C(=O)Nc1ccc(C)cc1 [Example 24, 4-(Methylamino)-N-(4-methylphenyl)-6-(methylthio)-2-pyridin-4-ylpyrimidine-5-carboxamide]	4000 nM		9900 nM	
CNc1nc(-c2cccnc2)nc(NC)c1C(=O)Nc1ccc(C)c(C)c1 [Example 7, N-(3,4-Dimethylphenyl)-4,6-bis(methylamino)-2-pyridin-3-ylpyrimidine-5-carboxamide]				melting point: 285 to 286 °C; IL-1β Inhibition (%) ([5]; Conc. 10 μM): Not active; inhibition at 10 µM [6]: 53.8%; inhibition at 0.1 µM [4]: 30.4%
CNc1nc(-c2ccncc2)nc(SC)c1C(=O)Nc1ccc(F)cc1 [Example 18, N-(4-Fluorophenyl)-4-(methylamino)-6-(methylthio)-2-pyridin-4-ylpyrimidine-5-carboxamide]	2000 nM		1200 nM	

Continued, in another order:

GI50 [1]	GI50 [2]	GI50 [3]	SMILES	further results
3200 nM			CNc1nc(-c2ccc(SC)cc2)nc(SC)c1C(=O)Nc1ccc(OC)cc1 [Example 20, 4-(Methylamino)-N-(4-methoxyphenyl)-6-(methylthio)-2-[4-(methylthio)phenyl]pyrimidine-5-carboxamide]	
5000 nM	3000 nM	2500 nM	CSc1ccc(-c2nc(NN)c(C(=O)Nc3ccc(C)c(C)c3)c(SC)n2)cc1 [Example 48, N-(3,4-Dimethylphenyl)-4-hydrazino-6-(methylthio)-2-[4-(methylthio)phenyl]pyrimidine-5-carboxamide]	
	3000 nM	4000 nM	CSc1ccc(-c2nc(NCCO)c(C(=O)Nc3ccc(C)c(C)c3)c(SC)n2)cc1 [Example 32, N-(3,4-Dimethylphenyl)-4-[(2-hydroxyethyl)amino]-6-(methylthio)-2-[4-(methylthio)phenyl]pyrimidine-5-carboxamide]	
500 nM	100 nM	2000 nM	CCOc1ccc(NC(=O)c2c(NC)nc(-c3ccc(SC)cc3)nc2SC)cc1 [Example 40, N-(4-Ethoxyphenyl)-4-(methylamino)-6-(methylthio)-2-[4-(methylthio)phenyl]pyrimidine-5-carboxamide]	IL-1β Inhibition (%) ([5]; Conc. 10 μM): Not active; inhibition at 10 µM [6]: 61.5%
3000 nM	5000 nM	4000 nM	CSc1ccc(-c2nc(SC)c(C(=O)Nc3ccc(C)c(C)c3)c(N3CCNCC3)n2)cc1 [Example 42, N-(3,4-Dimethylphenyl)-6-(methylthio)-2-[4-(methylthio)phenyl]-4-piperazin-1-ylpyrimidine-5-carboxamide]	IL-1β Inhibition (%) ([5]; Conc. 10 μM): Not active; inhibition at 10 µM [6]: 92.2%
3000 nM	1800 nM		CCCCc1ccc(NC(=O)c2c(NC)nc(-c3ccc(SC)cc3)nc2SC)cc1 [Example 36]	IL-1β Inhibition (%) ([5]; Conc. 0.1 μM): Not active; inhibition at 0.1 µM ([6]; Conc. 0.1 μM): 26.6%
400 nM	700 nM		CNc1nc(-c2ccc(F)cc2)nc(SC)c1C(=O)Nc1ccc(SC)cc1 [Example 45, 2-(4-Fluorophenyl)-4-(methylamino)-6-(methylthio)-N-[4-(methylthio)phenyl]pyrimidine-5-carboxamide]	
2000 nM	90 nM		CNc1nc(-c2ccc(SC)cc2)nc(SC)c1C(=O)Nc1ccc(C)cc1C [Example 39, N-(2,4-Dimethylphenyl)-4-(methylamino)-6-(methylthio)-2-[4-(methylthio)phenyl]pyrimidine-5-carboxamide]	
